Measured values taken from paper PMC7822874, “Chemoprotective antimalarials identified through quantitative high-throughput screening of Plasmodium blood and liver stage parasites” (Scientific Reports, 2021).
Where two headings read alike, the source gives them in different places.

Key:
[1] = in vitro; conditions: human, hepg2 cells
[2] = tested on: Plasmodium falciparum Dd2 asexual blood stage parasites; assay: microbe, parasite or virus in culture; set-up: species or system Plasmodium falciparum Dd2 in human erythrocytes; single determination (one 11-point concentration-response curve); conditions: Plasmodium falciparum, DD2, Erythrocyte, 72 h; read-out: AC50
[3] = in vitro; conditions: human; for viability at 66 h / viability at 48 h, 1 µM / viability at 48 h, 3 µM: HepG2-A16-CD81EGFP cells, uninfected
[4] = tested on: HepG2; conditions: human, hepg2 cells, 48 h
[5] = tested on: P. berghei-ANKA-GFP-LucCON liver stage parasites in HepG2-A16-CD81EGFP cells; assay: P. berghei liver stage Pb-Luc assay, Method 1 (UCSD, 1536-well); format: cell-based, Plasmodium berghei; conditions: Method 1

c1ccc(-[n+]2nc(Nc3cccc4ccccc34)sc2-c2c3ccccc3cc3ccccc23)cc1 [MLS000949879-01]
CC50 at 48 h [1]: 43.2 µM
AC50 [2]: 5.96 µM
viability at 66 h [3]: 95.1%
Log AC50 (M) [4]: -4.3643 M

CCOC(=O)c1sc(NC(=O)CNCc2ccccn2)c(C(=O)OCC)c1C [MLS001005083-01]
CC50 at 48 h [1]: 43.2 µM
viability at 48 h, 1 µM [3]: 101%
viability at 48 h, 3 µM [3]: 96%
Log AC50 (M) [4]: -4.3643 M

CCN(CC)CCn1c(=N)n(CC(=O)c2ccc(Br)s2)c2ccccc21 [MLS001045932-01]
CC50 at 48 h [1]: 30.6 µM
AC50 [2]: 5.31 µM
viability at 48 h, 1 µM [3]: 91%
viability at 48 h, 3 µM [3]: 91%
Log AC50 (M) [4]: -4.5143 M

Cc1c2ccncc2c(C)c2c1[nH]c1ccccc12 [MLS001076505-01]
CC50 at 48 h [1]: 43.2 µM
AC50 [2]: 3.35 µM
viability [3]: 102%
Log AC50 (M) [4]: -4.3643 M

CN(C)CC(CCC(CN(C)C)C(O)(c1ccccc1)c1ccccc1)C(O)(c1ccccc1)c1ccccc1 (stereo not drawn) [MLS001173677-01]
CC50 at 48 h [1]: 34.3 µM
AC50 [2]: 2.11 µM
viability at 48 h, 1 µM [3]: 101%
viability at 48 h, 3 µM [3]: 98%
Log AC50 (M) [4]: -4.4643 M

O=C(Nc1nc(-c2ccccn2)cs1)Nc1ccc(F)cc1F [MLS001175659-01]
CC50 at 48 h [1]: 17.2 µM
AC50 [2]: 5.31 µM
viability at 48 h, 1 µM [3]: 94%
viability at 48 h, 3 µM [3]: 79%
Log AC50 (M) [4]: -4.7643 M

COc1cc(OC)c(NC2=CC(=O)C(=O)c3ccccc32)cc1Cl [MLS001198657-01]
CC50 at 48 h [1]: 43.2 µM
AC50 [2]: 2.99 µM
viability at 48 h, 1 µM [3]: 93%
viability at 48 h, 3 µM [3]: 59%
Log AC50 (M) [4]: -4.3643 M

CN1CCN(c2ccc(Nc3ccnc4cc(Cl)ccc34)cc2)CC1 [MLS001203414-01]
CC50 at 48 h [1]: 24.3 µM
AC50 [2]: 0.188 µM
viability at 48 h, 1 µM [3]: 86%
viability at 48 h, 3 µM [3]: 90%
Log AC50 (M) [4]: -4.6143 M

CCn1c(/C=C/c2cc(Br)ccc2O)nc2ccccc2c1=O [MLS001205008-01]
CC50 at 48 h [1]: 13.7 µM
AC50 [2]: 4.22 µM
viability at 48 h, 1 µM [3]: 104%
viability at 48 h, 3 µM [3]: 101%
Log AC50 (M) [4]: -4.8643 M

COc1ccc(/C=N/Nc2cc(C)nc3ccccc23)cc1 [MLS001210939-01]
CC50 at 48 h [1]: 30.6 µM
AC50 [2]: 2.11 µM
viability at 48 h, 1 µM [3]: 92%
viability at 48 h, 3 µM [3]: 87%
Log AC50 (M) [4]: -4.5143 M

CN1CCC(NCCC(c2ccc(F)cc2)c2ccc(Cl)cc2)CC1 (stereo not drawn) [MLS001215866-01]
CC50 at 48 h [1]: 34.3 µM
AC50 [2]: 4.22 µM
viability at 66 h [3]: 98.6%
Log AC50 (M) [4]: -4.4643 M

COc1ccc(C2c3ccc4ccccc4c3Oc3ncn(CCCN(C)C)c(=N)c32)cc1 (stereo not drawn) [MLS001216280-01]
CC50 at 48 h [1]: 34.3 µM
AC50 [2]: 2.99 µM
viability at 48 h, 1 µM [3]: 109%
viability at 48 h, 3 µM [3]: 103%
Log AC50 (M) [4]: -4.4643 M

C/C(=N\NC(=O)c1cccc(Br)c1)c1ccccn1 [MLS001232242-01]
CC50 at 48 h [1]: 1.37 µM
AC50 [2]: 4.73 µM
Max Resp (signal direction of the dose response) ([5]; Decrease = decreasing P. berghei viability with dose, Increase = increasing signal, Inactive = no dose response): Decrease
AC50 ([5]; Hill fit, 50% of maximum activity response, read-out: AC50): 0.891 µM
Log AC50 (M) ([5]; log10 of molar AC50 from Hill fit): -6.050 M
AC50 ([5]; Plasmodium berghei, Hill fit, 50% of maximum activity response, read-out: AC50): 0.794 µM
AC50 ([5]; Plasmodium berghei, log10 of molar AC50 from Hill fit, read-out: Log AC50 (converted)): 0.794 µM
Log AC50 (M) [4]: -5.8643 M

COc1cc2nc(Nc3ccc(C)c(C)c3)nc(N)c2cc1OC [NCGC00107261-01]
CC50 at 48 h [1]: 43.2 µM
AC50 [2]: 0.75 µM
viability at 48 h, 1 µM [3]: 107%
viability at 48 h, 3 µM [3]: 97%
Log AC50 (M) [4]: -4.3643 M

CCCN(CCC)CCNC(=O)c1cc2c(-c3ccc(Cl)cc3)nn(C)c2s1 [NCGC00108997-01]
CC50 at 48 h [1]: 43.2 µM
AC50 [2]: 0.596 µM
viability at 48 h, 1 µM [3]: 102%
viability at 48 h, 3 µM [3]: 98%
Log AC50 (M) [4]: -4.3643 M

CCc1ccc([S+](=O)([O-])c2nnn3c2nc(Nc2ccc(F)cc2)c2cc(Cl)ccc23)cc1 [NCGC00112284-01]
CC50 at 48 h [1]: 34.3 µM
AC50 [2]: 2.11 µM
viability at 66 h [3]: 105%
Log AC50 (M) [4]: -4.4643 M

Cc1noc(C)c1Cc1ccc(C(=O)N2[C@H]3CC[C@@H]2c2cnc(-c4ccccc4)nc2C3)o1 [NCGC00458744-01]
CC50 at 48 h [1]: 27.3 µM
AC50 [2]: 9.44 µM
Log AC50 (M) [4]: -4.5643 M

CCOC(=O)CCCOc1cccn2c(=O)c(-c3cc(C)n(-c4ccc(Cl)cc4)n3)c(C)nc12 [NCGC00473250-01]
CC50 at 48 h [1]: 15.3 µM
AC50 [2]: 10.6 µM
Log AC50 (M) [4]: -4.8143 M
